Like-named read-outs stand apart in the source and are kept apart here.
Assays:
[1] = system: right and left humeri (radii and ulnae) of rat fetus; assay: Bone resorption inhibition: 45Ca release from fetal rat bone in culture (method of Raisz); assay type: cell-based, Sprague-Dawley rat; conditions: for activity at 10 µg/mL: Rattus norvegicus, 48 h, read-out: 45Ca released (% of control value)
Description: Thus, a Sprague-Dawley rat at day 19 of pregnancy was subcutaneously dosed with 50 μCi of ^45 Ca (a radioisotope of calcium, in CaCl2). On the next day, the animal was laparotomized and the fetuses were removed aseptically. The right and left humeri (radii and ulnae) of each rat fetus were dissected from the body under the dissection microscope. The connective tissue and cartilages were removed as far as possible to prepare bone culture specimens. Each piece of bone was incubated in 0.6 ml of BGJb medium Fitton-Jackson modification (the tradename owned by GIBCO Laboratories, U.S.A.) containing 2 mg/ml of bovine serum albumin at 37° C. for 24 hours. […] The radioactivities of ^45 Ca in the culture medium and bone were determined and the ratio (%) of ^45 Ca released from the bone to the medium was calculated according to the following formula. […] A=ratio (%) of ^45 Ca released from the bone to the medium B=^45 Ca count in the medium
C=^45 Ca count in the bone
The bones from the fetuses of the same litter were similarly incubated without addition of the test compound for two days and served as controls.
The values for 5 bones per group were expressed in mean. The ratio (%) of this value for the treatment group to the control value was determined.

mice = assay: Oral toxicity in mice; assay type: in vivo; conditions: 300 mg/kg
Description: The compound (I) and salt according to the present invention has excellent bone resorption inhibitory activity. Thus, they have the action to inhibit the dissolution and diminution of bone in the body. Furthermore, compound (I) and salts thereof have bone formation promoting activity.

[2] = system: oophorectomized Sprague-Dawley rats, right femur; assay: Treatment of osteoporosis in oophorectomized rats (femur bone density, dry weight, ashes); assay type: in vivo; conditions: daily dose 100 mg/kg orally; for Ashes / Dry weight: 18 doses, distal 1/3 of right femur
Description: Study on Treatment of Osteoporosis
Oophorectomy was performed on Sprague-Dawley rats at 10 weeks of age and starting from the following day, the rats were orally dosed with the test compound 6 days a week for 3 weeks, or a total of 18 days. On the day following the last dosing, the right femur was removed from each rat and subjected to soft X-ray photography with a soft X-ray apparatus (Softex CSM, Softex). Using a microdensitometer (PDM-5, Konica Medical), the transverse section of the femur on the soft X-ray film was scanned at a point one-fifth from the distal end (metaphysis) and from the density wave pattern, bone density was calculated according to the microdensitometric method described by Inoue et al. [Journal of Japanese Orthopedic Association (J Jpn. Orthop. Ass.) 57, 1923 (1983)].
After soft X-ray photographing, the 1/3 distal part of the femur was sectioned off at right angles with the major axis. After the bone marrows were washed off with a rinse pump, the femur section was put into a porcelain crucible, placed in a oven and dried at 110° C. for 24 hours. The dry weight was then determined.
The porcelain crucible containing the bone was transferred to a muffle furnace (FP-41, Yamato Chemicl) and heated at 500° C. for 3 hours and at 800° C. for 2 hours for calcification of the bone and the ashes were weighed.
The mean ± standard errors of the measured values for the right femurs of 7 rats per group were determined.

[3] = final concentration 10 μg/ml, two additional days at 37° C., mean of 5 bones per group, lower = more inhibition
[4] = Table 4, oophorectomy control 76.3, sham 85.7
[5] = Table 4, oophorectomy control 114.2, sham 131.4

SMILES | activity at 10 µg/mL [1] | activity at 10 µg/mL [1, 3] | other results
CCOP(=O)(Cc1ccc(NC(=O)[C@@H]2S[C@@H](C)C(=O)c3cc(C4CCCCC4)ccc32)cc1)OCC (relative stereo) [Example 23] | 65% | – | –
O=C1CSC(C(=O)O)c2ccc(Cl)cc21 (stereo not drawn) [Example 1, 6-chloro-3,4-dihydro-1H-2-benzothiopyran-4-one-1-carboxylic acid] | – | 84% | –
O=C1CSC(C(=O)Nc2cccnc2)c2ccc(C3CCCCC3)cc21 (stereo not drawn) [Example 10, 6-cyclohexyl-N-(3-pyridyl)-3,4-dihydro-1H-2-benzothiopyran-4-one-1-carboxamide] | – | 62% | –
O=C1CSC(C(=O)Nc2nccs2)c2ccc(C3CCCCC3)cc21 (stereo not drawn) [Example 12] | – | 84% | –
COc1ccc(-c2csc(NC(=O)C3SCC(=O)c4cc(C5CCCCC5)ccc43)n2)cc1OC (stereo not drawn) [Example 14] | – | 81% | –
O=C1CSC(C(=O)N2CCN(c3ccc(F)cc3)CC2)c2ccc(C3CCCCC3)cc21 (stereo not drawn) [Example 18] | – | – | death (mice): no death was encountered
O=C1CSC(C(=O)Nc2ccc3c(c2)OCO3)c2ccc(C3CCCCC3)cc21 (stereo not drawn) [Example 19] | – | 70% | –
O=C1CSC(C(=O)Nc2ccc(Cl)cc2)c2ccc(C3CCCCC3)cc21 (stereo not drawn) [Example 21] | – | 73% | –
CCOP(=O)(Cc1ccc(NC(=O)C2SCC(=O)c3cc(C4CCCCC4)ccc32)cc1)OCC (stereo not drawn) [Example 22] | 57% | – | Ashes ([2]; Table 2, oophorectomy control 74.3, sham 80.0): 82.4 mg; Dry weight ([2]; Table 2, oophorectomy control 107.7, sham 116.2): 120.0 mg; Bone density ([2]; Table 2, 6 days a week for 3 weeks, femur metaphysis, oophorectomy control 1.062, sham 1.304): 1.336; death (mice): no death was encountered
COc1ccc(NC(=O)C2SCC(=O)c3cc4c(cc32)CCCC4)cc1OC (stereo not drawn) [Example 28] | – | 79% | –
O=C1CSC(C(=O)N2CCN(c3ccc(F)cc3)CC2)c2cc3c(cc21)CCCC3 (stereo not drawn) [Example 30] | – | 75% | –
COP(=O)(OC)c1ccc(NC(=O)C2SCC(=O)c3cc4c(cc32)CCCC4)cc1 (stereo not drawn) [Example 31] | 64% | – | –
CCOP(=O)(OCC)c1ccc(NC(=O)C2SCC(=O)c3cc4c(cc32)CCCC4)cc1 (stereo not drawn) [Example 33] | 53% | – | –
CCOP(=O)(Cc1ccc(NC(=O)C2SCC(=O)c3cc4c(cc32)CCCC4)cc1)OCC (stereo not drawn) [Example 35] | 58% | – | –
CC(C)OP(=O)(Cc1ccc(NC(=O)C2SCC(=O)c3cc4c(cc32)CCCC4)cc1)OC(C)C (stereo not drawn) [Example 36] | 73% | – | –
CCOP(=O)(OCC)c1ccc(NC(=O)C2SCC(=O)c3cc(Cl)ccc32)cc1 (stereo not drawn) [Example 46] | 76% | – | –
CCCOP(=O)(OCCC)c1ccc(NC(=O)C2SCC(=O)c3cc4c(cc32)OCCO4)cc1 (stereo not drawn) [Example 50] | 73% | – | –
COc1ccc(CCN(C)C(=O)C2SCC(=O)c3cc(C4CCCCC4)ccc32)cc1OC (stereo not drawn) [Example 55] | – | 78% | –
CCOP(=O)(OCC)c1ccc(NC(=O)C2Cc3ccc(C4CCCCC4)cc3C(=O)CS2)cc1 (stereo not drawn) [Example 56, 7-cyclohexyl-N-(4-diethoxyphosphorylphenyl)-1,2,4,5-tetrahydro-3-benzothiepin-5-one-2-carboxamide] | 76% | – | –

SMILES | activity at 10 µg/mL [1] | activity at 10 µg/mL [1, 3] | other results
O=C(Nc1ccc2c(c1)OCO2)C1SCC(O)c2ccc(C3CCCCC3)cc21 (stereo not drawn) [Example 59, 7-cyclohexyl-N-(3,4-methylenedioxyphenyl)-c-4-hydroxy-3,4-dihydro-1H-2-benzothiopyran-r-1-carboxamide] | – | – | 45Ca released (% of control value) ([1]; final concentration 10 μg/ml, two additional days at 37° C., mean of 5 bones per group, lower = more inhibition, 2880 min): 64 % of control value
CCOP(=O)(Cc1ccc(NC(=O)C2SCC(=O)c3cc(C4CCCC4)ccc32)cc1)OCC (stereo not drawn) [Example 132] | 57% | – | –
CCOP(=O)(Cc1ccc(NC(=O)C2SCC(=O)c3cc(C4CCCCCC4)ccc32)cc1)OCC (stereo not drawn) [Example 138] | 63% | – | –
CCOP(=O)(Cc1ccc(NC(=O)C2SCC(=O)c3cc(C)ccc32)cc1)OCC (stereo not drawn) [Example 140] | 61% | – | –
CCOP(=O)(OCC)c1ccc(NC(=O)C2SCC(=O)c3cc(C(C)C)ccc32)cc1 (stereo not drawn) [Example 141] | 57% | – | –
CCOP(=O)(OCC)c1ccc(NC(=O)C2SCC(=O)c3cc(C(C)(C)C)ccc32)cc1 (stereo not drawn) [Example 143] | 44% | – | –
CCOP(=O)(CCc1ccc(NC(=O)C2SCC(=O)c3cc(C(C)(C)C)ccc32)cc1)OCC (stereo not drawn) [Example 144] | 52% | – | –
CCOP(=O)(Cc1ccc(NC(=O)C2SCC(=O)c3cc(C(C)(C)CC)ccc32)cc1)OCC (stereo not drawn) [Example 146] | 62% | – | Ashes ([2]; Table 3, oophorectomy control 74.3, sham 88.3): 84.1 mg; Dry weight ([2]; Table 3, oophorectomy control 112.3, sham 130.4): 128.2 mg
CCOP(=O)(Cc1ccc(NC(=O)C2SCC(=O)c3c(C)ccc(C)c32)cc1)OCC (stereo not drawn) [Example 150] | 71% | – | –
Cc1cc(C)c2c(c1)C(=O)CSC2C(=O)Nc1ccc(Cl)cc1 (stereo not drawn) [Example 153] | – | 63% | –
Cc1cc2c(cc1C)C(C(=O)Nc1ccc(Cl)c(Cl)c1)SCC2=O (stereo not drawn) [Example 155] | – | 80% | –
Cc1cc2c(cc1C)C(C(=O)Nc1ccc(C)c(Cl)c1)SCC2=O (stereo not drawn) [Example 157] | – | 71% | –
COP(=O)(OC)c1ccc(NC(=O)C2SCC(=O)c3cc(C)c(C)cc32)cc1 (stereo not drawn) [Example 160] | 54% | – | –
CCOP(=O)(OCC)c1ccc(NC(=O)C2SCC(=O)c3cc(C)c(C)cc32)cc1 (stereo not drawn) [Example 161] | 50% | – | Ashes [2, 4]: 83.7 mg; Dry weight [2, 5]: 127.5 mg
CCOP(=O)(Cc1ccc(NC(=O)C2SCC(=O)c3cc(C)c(C)cc32)cc1)OCC (stereo not drawn) [Example 163] | 50% | – | Ashes [2, 4]: 82.3 mg; Dry weight [2, 5]: 127.6 mg
O=C1CSC(C(=O)Nc2ccc(Cl)cc2)c2cc3c(cc21)CCC3 (stereo not drawn) [Example 183] | – | 47% | –
CCOP(=O)(Cc1cccc(NC(=O)C2SCC(=O)c3cc4c(cc32)CCCC4)c1)OCC (stereo not drawn) [Example 191] | 58% | – | –
CCOP(=O)(OCC)c1ccc(NC(=O)C2SCC(=O)c3cc4c(cc32)CCCCC4)cc1 (stereo not drawn) [Example 198] | 62% | – | –
CCOP(=O)(NC(=O)C1SCC(=O)c2cc(C3CCCCC3)ccc21)OCC (stereo not drawn) [Example 201, 6-cyclohexyl-N-diethoxyphosphoryl-3,4-dihyiro-1H-2-benzothiopyran-4-one-1-carboxamide] | 65% | – | –
